Values of other authors in patent US20030152481A1 (priority 2002, published 2003).

Details: rat, in vivo

## OCCc1ccccc1 [2-phenylethanol]
  oral LD50: 1790 mg/kg
